This data set is described as follows: Rat pharmacokinetics, single PO or IV dose. The format is in vivo, male Sprague Dawley rats. Particulars: for fraction of the IV dose recovered in urine: 24-h sampling period; for AUC(0-inf): all dose levels 50–200 mg/kg, read-out: mean AUCinf. The text has this:
Studies were undertaken to determine the plasma pharmacokinetics of SJ733 and SJ311. These studies included: (i) single oral gavage (PO) or intravenous (IV) dose administration to female C57BL/6 mice; (ii) single PO or IV dose administration to male Sprague Dawley (SD) rats; (iii) single PO or IV dose administration to male beagle dogs; (iv) toxicokinetic (TK) study following single PO administration to male SD rats. The PO and IV formulation used for mouse studies at SJCRH was 1% hydroxypropyl-beta-cyclodextrin (w/v), 10% ethanol (v/v), 10% propylene glycol (v/v), 40% PEG-400 (v/v) and 39% PBS (pH 7.4) isotonic (v/v). Compounds were dosed orally as suspensions, and intravenously as filtered solutions. Compound concentrations were confirmed post filtration using UV spectroscopy. The IV formulation used for rat studies (Monash University) was the same as that used for mice. For PO dosing to rats (Monash University) at 2 mg/kg, a suspension formulation was used containing 0.5% (w/v) hydroxypropyl methylcellulose, 0.5% (v/v) benzyl alcohol and 0.4% (v/v) Tween 80. The formulation used for rat studies at SRI (PO, high dose) was the same as that used in mouse PK studies. The formulation for the high dose TK study at SRI was 0.5% methylcellulose in sterile water. The formulation used for dog studies was the same as that used in mouse PK studies. The PO and IV PK of SJ733 and SJ311 were studied in overnight-fasted male Sprague Dawley rats. Rats had access to water ad libitum throughout the pre- and post-dose sampling period, and access to food was re-instated 4 h post-dose. […] Once collected, blood samples were centrifuged, supernatant plasma was removed and stored frozen (− 20 °C) until LC–MS analysis within 1 week of collection. The high dose levels of both compounds (50, 100, 200 mg/kg, PO, (+)-SJ733/311) were also independently tested by SRI, with a single oral gavage administration. Blood (through jugular vein) and urine were collected at time points up to 72 and 24 h post dose, respectively. Supernatant plasma was removed following centrifugation and stored frozen (− 70 °C) until LC–MS analysis. For toxicology studies, male Sprague Dawley rats were administered 50, 100, 250, 500, or 750 mg/kg of (r)-SJ733 or (r)-SJ311 by oral gavage (one dose per animal). Body weights were recorded on Day 1 prior to dose administration and on Day 4. Blood samples (400 µL) were collected at 4 and 24 h post drug administration from the retro-orbital sinus. Potassium EDTA treated plasma was collected and kept frozen at -70 °C for bioanalytical analysis. For studies at Monash University, rat plasma and urine samples were extracted utilizing protein precipitation with a twofold volume ratio of acetonitrile. SJ733, SJ311, and diazepam (IS) were detected using LC–MS/MS instrumentation. Aliquots (3 µL) were injected onto a Waters Acquity UPLC equipped with a Waters Micromass Xevo TQ MS/MS and separated using a Supelco Ascentis Express RP Amide column (50 × 2.1 mm, 2.7 µm) with a methanol–water gradient containing 0.05% formic acid. Calibration standards were prepared by spiking blank matrix (plasma or urine) and the calibration range was from 1 to 10,000 ng/mL for plasma or 2.5 to 5000 ng/mL for urine. Plasma and urine samples from the high dose rat PK studies were analyzed by SRI. In both matrices, the sample volume was 50 μL, and assay entailed the addition of 50 μL of internal standard solution to the standards and study samples. The compounds were used as reciprocal standards for one another (427 nM SJ733 in Milli-Q-Water for SJ571311 and 437 nM SJ311 in Milli-Q-Water for SJ733). These mixtures were then extracted with 1000 μL of ethyl acetate by vortexing for 10 min on a multi-tube vortex mixer at maximum speed followed by separation of the organic and aqueous phases by centrifugation (18,000×g, 5 min). […]

Where [1] appears, read: male, Sprague Dawley, plasma, PO.
The mark [2] stands for this setting: male, Sprague Dawley, plasma, PO, read-out: terminal half-life, mean t1/2.

Read-outs that look alike come from different tables or passages of the source.

Usually Tmax stands for the time at which the peak concentration occurs. The bioavailability is the share of a dose that reaches the circulation, judged against a reference dose that is usually intravenous. By CL/F is commonly meant the apparent clearance, not corrected for the fraction that reaches the circulation. Usually Cmax stands for the maximum level reached in the sampled fluid or tissue.

For the compound `N#Cc1cc(NC(=O)C2c3ccccc3C(=O)N(CC(F)(F)F)C2c2cccnc2)ccc1F` (racemic) [(r)-SJ733], where the note is “in vivo, po, 19.8 mg/kg”, the Tmax came to 1.0 h.

Turning to `N#Cc1cc(NC(=O)[C@H]2c3ccccc3C(=O)N(CC(F)(F)F)[C@@H]2c2cccnc2)ccc1F` (racemic) [SJ733], under “IV”, the “fraction of the IV dose recovered in urine” value is recorded as ~1.5%. Further, the Half-life was in the range of 300 to 1080 min (male, Sprague Dawley, plasma, IV, isomers and racemate at similar doses, read-out: IV half-lives); 462 to 618 min under setting [2]. For the same compound, the AUC(0-inf) under setting [1] was 96.3 to 330 µM·h. The bioavailability (male, Sprague Dawley, plasma, po, summary over the oral doses studied, read-out: Rat F (oral bioavailability)) was in the range of 60 to 100%. Under “male, Sprague Dawley, plasma, read-out: measured in vivo clearance (converted)”, the clearance is ~11.7 mL/min/kg. Under “summary over the oral doses studied”, the “Rat F (oral bioavailability)” value is 63-122%.

As to `N#Cc1cc(NC(=O)[C@H]2c3ccccc3C(=O)N(CC(F)(F)F)[C@@H]2c2cn[nH]c2)ccc1F` [(+)-SJ311], the Half life (in vivo, po, 20.4 mg/kg) is reported as 7.9, 7.9 h. Further, where the note is “in vivo, po, 50 mg/kg”, the AUCinf came out at 34.1 ± 8.7 µM·h, the CL/F is given as 3.4 ± 1.0 L/h/kg, the highest level (Cmax) was 4.4 ± 2 µM and the F% amounted to 20.5%. Also, under “in vivo, po, 50 mg/kg”, the Half life is reported as 3.5 ± 0.4 h, the Tmax turned out to be 1.2 ± 0.8 h and the V/F is on record as 17 ± 7.0 L/kg. For the setting “in vivo, po, 100 mg/kg”, the AUCinf is 61.9 ± 11.5 µM·h, the CL/F is 3.6 ± 0.7 L/h/kg, the concentration peaked (Cmax) at 7.1 ± 0.81 µM and the F% was 18.6%. Further, under “in vivo, po, 100 mg/kg”, the Half life is 4.3 ± 2.2 h, the Tmax was 4 h and the V/F was 21 ± 8.0 L/kg. Where the note is “in vivo, po, 200 mg/kg”, this compound came in with an AUCinf of 65.8 ± 12.6 µM·h, a CL/F of 6.7 ± 0.5 L/h/kg, a maximum concentration (Cmax) of 9.4 ± 5.4 µM and a Dose in urine of 1.1 ± 0.4%. Besides, for the setting “in vivo, po, 200 mg/kg”, the F% turned out to be 9.9%, the Half life is on record as 4 h, the Tmax was determined as 3.2 ± 4.2 h and the V/F turned out to be 38 L/kg.

In the case of `N#Cc1cc(NC(=O)[C@H]2c3ccccc3C(=O)N(CC(F)(F)F)[C@@H]2c2cccnc2)ccc1F` [(+)-SJ733], for the setting “in vivo, iv, 0.1 mg/kg”, the AUCinf was found to be 14.7 ± 0.7 µM·h, the CL is 0.68 ± 0.02 L/h/kg, the Dose in urine is listed as 1.6 ± 0.5% and the Half-life was determined as 552 ± 24 min. For the setting “in vivo, iv, 0.1 mg/kg”, this compound yielded a Vss of 3.3 ± 0.2 L/kg. Further, for the setting “in vivo, po, 1.7 mg/kg”, the AUCinf is given as 1.9 ± 0.6^ c h.µM, the peak level (Cmax) was 0.7 ± 0.1 µM, the Dose in urine is recorded as 0.5 ± 0.3% and the F% was determined as 36.7 ± 12%. The Tmax (in vivo, po, 1.7 mg/kg) turned out to be 0.7 ± 0.3 h. Where the note is “in vivo, po, 1.9 mg/kg”, this compound had an AUCinf of 6.6 ± 1.2 µM·h, a Cmax of 0.9 ± 0.1 µM, a Dose in urine of 1.2 ± 0.4% and a F% of 111 ± 19%. For the setting “in vivo, po, 1.9 mg/kg”, the Half life stood at 11.3 ± 6.0 h and the Tmax amounted to 3.0 ± 0.9 h. Where the note is “in vivo, po, 50 mg/kg”, the AUCinf was 96.3 ± 5.8 µM·h, the CL/F was determined as 1.1 ± 0.1 L/h/kg, the Cmax was 11.1 ± 1.2 µM and the F% was found to be 74.5%. Moreover, where the note is “in vivo, po, 50 mg/kg”, the Half life is listed as 7.7 ± 3.2 h, the Tmax stood at 4 h and the V/F is reported as 12 ± 5.0 L/kg. Moreover, where the note is “in vivo, po, 100 mg/kg”, the AUCinf amounted to 180 ± 23.2 µM·h, the CL/F was determined as 1.2 ± 0.1 L/h/kg, the peak level (Cmax) was 16.6 ± 3.2 µM and the F% stood at 69.6%. Further, for the setting “in vivo, po, 100 mg/kg”, the Half life turned out to be 10.3 ± 6.9 h, the Tmax came out at 3.0 ± 1.7 h and the V/F turned out to be 17 ± 9.0 L/kg. Further, where the note is “in vivo, po, 200 mg/kg”, the AUCinf turned out to be 330 ± 78.4 µM·h, the CL/F turned out to be 1.3 ± 0.3 L/h/kg, the concentration peaked (Cmax) at 27.9 ± 3.8 µM and the Dose in urine is 0.2 ± 0.1%. In addition, where the note is “in vivo, po, 200 mg/kg”, the F% is given as 63.8%, the Half life amounted to 7.7 ± 3.3 h, the Tmax is reported as 4.0 ± 3.5 h and the V/F was 15 ± 9.0 L/kg.

As to `N#Cc1cc(NC(=O)[C@H]2c3ccccc3C(=O)N(CC(F)(F)F)[C@@H]2c2cn[nH]c2)ccc1F` [SJ311], where the note is “IV”, the “fraction of the IV dose recovered in urine” value was “ca. 22%”. For the same compound, the AUC(0-inf) under setting [1] is 34.1 to 65.8 µM·h. Further, the Half-life under setting [2] lay within 210 to 474 min.

The values above are taken from article PMC7893776, “Selecting an anti-malarial clinical candidate from two potent dihydroisoquinolones” (Malaria Journal, 2021).
